Source: article PMC6680510, “Benzotriazine Di-Oxide Prodrugs for Exploiting Hypoxia and Low Extracellular pH in Tumors” (Molecules, 2019)
“And” between values parts separate entries of the source, which are not always exact repeats. Equal values may be shown once. Read-outs that look alike come from different tables or passages of the source.

Columns and labels:
SiHa cells = assay: IC50 assay (inhibition of proliferation, 4 h exposure, SRB)
Experimental: Cells were seeded in 96-well plates (SiHa or FaDu 1500 cells/well, UT-SCC-74B 800 cells/well) in 100 μL. After incubation for 2 h, the drugs were added in 50 μL of the same titrated medium at 3× the final concentration to duplicate the wells. After a further 4 h the plates were checked for drug precipitation using a phase contrast microscope, then drugs were removed by aspirating and washing with the standard (pH 7.4) medium, then aspirating again and adding 150 μL of the medium. Cultures were then grown for 5 days before staining with sulphorhodamine B and measuring absorbance, with the estimation of IC50 values using 4-parameter logistic regression, as previously carried out.
The medium and plasticware was equilibrated in the chamber for 3 days prior to use. In the anoxia experiments, FaDu cells were plated in poly-L-lysine coated plates (Corning Cat # 356461) to improve attachment.
Cells were subsequently grown under standard cell culture conditions (oxia, pHe 7.4) for 5 days before staining with sulforhodamine B (SRB). […] (B) SN30000 (2). (C) BTO acid 4a. Values are means and errors are ranges for duplicate cultures in a single experiment. Fitted curves are 4-parameter logistic regressions. PCR = pH cytotoxicity ratio. ACR = anoxia cytotoxicity ratio. TMR = tumor microenvironment ratio.

FaDu cells = assay: as above; assay type: cell-based
Experimental: Cells were seeded in 96-well plates (SiHa or FaDu 1500 cells/well, UT-SCC-74B 800 cells/well) in 100 μL. After incubation for 2 h, the drugs were added in 50 μL of the same titrated medium at 3× the final concentration to duplicate the wells. After a further 4 h the plates were checked for drug precipitation using a phase contrast microscope, then drugs were removed by aspirating and washing with the standard (pH 7.4) medium, then aspirating again and adding 150 μL of the medium. Cultures were then grown for 5 days before staining with sulphorhodamine B and measuring absorbance, with the estimation of IC50 values using 4-parameter logistic regression, as previously carried out [85].

[1] = Solubility in AlphaMEM + 5% FBS, pH 7.4; details: culture medium (AlphaMEM + 5% FBS), pH 7.4, plasma or biological fluid
[2] = One-electron reduction potentials by pulse radiolysis; assay type: physicochemical; details: pH 7.0, equilibrium with redox indicator shown in square brackets
Experimental: One-electron reduction potentials (E^0′) were determined from the redox equilibria with methylviologen, MV^2+, (E^0′ = […], [34]), dimethyldiquat, V21^2+, (E^0′ = […], [35]), or triquat, TQ^2+, (E^0′ = −548 ± 7 mV [34]). […] Substituting the 3-alkanoic sidechain with the 3-aminoalkanoic sidechain on the BTO 1,4-dioxide lowers the E^0′, as does the addition of the cyclopentane ring. The combined effect is seen for 10a, where the E^0′ value is −565 mV, which is expected to be too low for significant bioreduction under hypoxia.
Time-resolved optical absorption and kinetic studies were carried out using the University of Auckland’s 4 MeV linear accelerator, which has been previously described. The one-electron reduction potentials of the compounds (A) and couple E^0′(A/A^−), versus normal hydrogen electrode, were determined at pH 7.0 (2.5 mM phosphate) by establishing redox equilibria within 50 μs between three mixtures of one-electron reduced A and the viologen reference compounds, MV^2+, TQ^2+ and V21^2+. The determined equilibrium constants were used to calculate the ΔE values using the Nernst equation, correcting for ionic strength effects, as described in the literature.

[3] = Homo sapiens, SiHa, 4 h, read-out: Anoxic IC50, SiHa, pHe 6.5, 4 h, anoxic
[4] = Homo sapiens, SiHa, 4 h, read-out: Anoxic IC50, SiHa, pHe 7.4, 4 h, anoxic
[5] = Homo sapiens, SiHa, 4 h, read-out: Oxic IC50, SiHa, pHe 6.5, 4 h, oxic
[6] = Homo sapiens, SiHa, 4 h, read-out: Oxic IC50, SiHa, pHe 7.4, 4 h, oxic
[7] = Homo sapiens, 4 h, pHe 6.5, 4 h, anoxic, read-out: Anoxic IC50
[8] = Homo sapiens, 4 h, pHe 6.5, 4 h, oxic, read-out: Oxic IC50
[9] = Homo sapiens, 4 h, pHe 7.4, 4 h, anoxic, read-out: Anoxic IC50
[10] = Homo sapiens, 4 h, pHe 7.4, 4 h, oxic, read-out: Oxic IC50

| Structure (SMILES) | melting point | solubility ([1]; kinetic from dmso stock) | IC50 (SiHa cells; [3]) | IC50 (SiHa cells; [4]) | IC50 (SiHa cells; [5]) | IC50 (SiHa cells; [6]) | TMR (overall TME ratio = oxic IC50 pHe 7.4/anoxic IC50 pHe 6.5) (SiHa cells; SiHa) | PCR Anoxic (IC50 at pHe 7.4/IC50 at pHe 6.5) (SiHa cells; SiHa, anoxic) | PCR oxic (IC50 at pHe 7.4/IC50 at pHe 6.5) (SiHa cells; SiHa, oxic) | ACR (anoxic cytotoxicity ratio = oxic IC50/anoxic IC50) (SiHa cells; SiHa, pHe 6.5) | ACR (anoxic cytotoxicity ratio = oxic IC50/anoxic IC50) (SiHa cells; SiHa, pHe 7.4) | TMR (oxic IC50 pHe 7.4/anoxic IC50 pHe 6.5) (FaDu cells) | IC50 (FaDu cells; [7]) | IC50 (FaDu cells; [8]) | IC50 (FaDu cells; [9]) | IC50 (FaDu cells; [10]) | PCR Anoxic (IC50 at pHe 7.4/IC50 at pHe 6.5) (FaDu cells; anoxic) | PCR oxic (IC50 at pHe 7.4/IC50 at pHe 6.5) (FaDu cells; oxic) | ACR (oxic IC50/anoxic IC50) (FaDu cells; pHe 6.5) | ACR (oxic IC50/anoxic IC50) (FaDu cells; pHe 7.4) | also measured |
| --- | --- | --- | --- | --- | --- | --- | --- | --- | --- | --- | --- | --- | --- | --- | --- | --- | --- | --- | --- | --- | --- |
| Cc1ccc2c(c1)[n+]([O-])nc(CCC(=O)O)[n+]2[O-] [Compound 5a, 3-(2-Carboxyethyl)-7-methylbenzo[e][1,2,4]triazine 1,4-Dioxide] | 181 to 183 °C (dec.) | > 980 µM | 225 ± 38 µM | 542 ± 113 µM | 449 ± 188 µM | > 3000 µM | >13 | 2.41 ± 0.64 | >6.7 | 1.99 ± 0.90 | >5.5 | 13.9 ± 1.7 | 203 ± 18 µM | 1100 ± 110 µM | 924 ± 64 µM | 2770 ± 690 µM | 4.29 ± 0.55 | 2.55 ± 0.32 | 5.49 ± 0.26 | 3.00 ± 0.22 |  |
| Cc1ccc2c(c1)[n+]([O-])c(CCC(=O)O)n[n+]2[O-] [Compound 6a, 3-(2-Carboxyethyl)-6-methylbenzo[e][1,2,4]triazine 1,4-Dioxide] | 173 to 175 °C (dec.) | > 960 µM | 364 ± 47 µM | 1180 ± 190 µM | > 1000 µM | > 1000 µM | >2.7 | 3.24 ± 0.67 |  | >2.7 |  | >5 | 205 ± 25 µM | > 1000 µM | > 1000 µM | > 1000 µM | >5 |  | >5 |  |  |
| COC(=O)CCc1n[n+]([O-])c2ccc(C)cc2[n+]1[O-] [Compound 6b, 3-(3-Methoxy-3-oxopropyl)-6-methylbenzo[e][1,2,4]triazine 1,4-Dioxide] | 166 to 168 °C | > 900 µM |  |  |  |  |  |  |  |  |  |  |  |  |  |  |  |  |  |  |  |
| COC(=O)CCc1n[n+]([O-])c2cc3c(cc2[n+]1[O-])CCC3 [Compound 7b, 3-(3-Methoxy-3-oxopropyl)-7,8-dihydro-6H-indeno[5,6-e][1,2,4]triazine 1,4-Dioxide] | 170 to 171 °C |  | 15.1 ± 3.1 µM | 7.3 ± 1.6 µM | 195 ± 22 µM | > 200 µM | >13 | 0.48 ± 0.15 | >1 | 13.0 ± 3.0 | >27 | >10 | 20 ± 5.4 µM | 157 ± 28 µM | 11.5 ± 2.2 µM | > 200 µM | 0.58 ± 0.19 | >1.2 | 7.84 ± 2.56 | >17 | solubility ([1]; thermodynamic from solid): 280 µM |
| O=C(O)CNc1n[n+]([O-])c2ccccc2[n+]1[O-] [Compound 8a, 3-((Carboxymethyl)amino)benzo[e][1,2,4]triazine 1,4-dioxide] |  |  | 135 ± 18 µM | 154 ± 26 µM | > 2000 µM | > 2000 µM | >15 | 1.14 ± 0.25 |  | >15 | >13 | >6.9 | 290 ± 48 µM | 1450 ± 268 µM | 289 ± 25 µM | > 2000 µM | 1.0 ± 0.19 | >1 | 4.99 ± 1.24 | >6.9 | solubility ([1]; thermodynamic from solid): 8700 µM; E^0′ one-electron reduction potential [2]: −470 ± 9 [MV^2+] mV |
| O=C(O)CCCNc1n[n+]([O-])c2ccccc2[n+]1[O-] [Compound 10a, 3-((3-Carboxypropyl)amino)benzo[e][1,2,4]triazine 1,4-Dioxide] |  |  |  |  |  |  | >4.8 | >4.8 |  |  |  | >4 |  |  |  |  | 1.58 ± 0.37 |  | >4 | >3 | ACR (anoxic cytotoxicity ratio = oxic IC50/anoxic IC50) (SiHa cells): >4.8; IC50 (SiHa cells; read-out: Anoxic IC50, SiHa, pHe 6.5, 4 h, anoxic): 416 ± 57 µM; IC50 (SiHa cells; read-out: Anoxic IC50, SiHa, pHe 7.4, 4 h, anoxic): > 2000 µM; IC50 (SiHa cells; read-out: Oxic IC50, SiHa, pHe 6.5, 4 h, oxic): > 2000 µM; IC50 (SiHa cells; read-out: Oxic IC50, SiHa, pHe 7.4, 4 h, oxic): > 2000 µM; IC50 (FaDu cells; pHe 6.5, 4 h, anoxic, read-out: Anoxic IC50): 543 ± 126 µM; IC50 (FaDu cells; pHe 6.5, 4 h, oxic, read-out: Oxic IC50): > 2000 µM; IC50 (FaDu cells; pHe 7.4, 4 h, anoxic, read-out: Anoxic IC50): 856 ± 22 µM; IC50 (FaDu cells; pHe 7.4, 4 h, oxic, read-out: Oxic IC50): > 2000 µM; E^0′ one-electron reduction potential [2]: −565 mV and −565 ± 8 [TQ^2+] mV |

Now from value to compound, other results behind:

| melting point | solubility ([1]; kinetic from dmso stock) | Structure (SMILES) | IC50 (SiHa cells; [3]) | IC50 (SiHa cells; [4]) | IC50 (SiHa cells; [5]) | IC50 (SiHa cells; [6]) | TMR (overall TME ratio = oxic IC50 pHe 7.4/anoxic IC50 pHe 6.5) (SiHa cells; SiHa) | PCR Anoxic (IC50 at pHe 7.4/IC50 at pHe 6.5) (SiHa cells; SiHa, anoxic) | PCR oxic (IC50 at pHe 7.4/IC50 at pHe 6.5) (SiHa cells; SiHa, oxic) | ACR (anoxic cytotoxicity ratio = oxic IC50/anoxic IC50) (SiHa cells; SiHa, pHe 6.5) | ACR (anoxic cytotoxicity ratio = oxic IC50/anoxic IC50) (SiHa cells; SiHa, pHe 7.4) | TMR (oxic IC50 pHe 7.4/anoxic IC50 pHe 6.5) (FaDu cells) | IC50 (FaDu cells; [7]) | IC50 (FaDu cells; [8]) | IC50 (FaDu cells; [9]) | IC50 (FaDu cells; [10]) | PCR Anoxic (IC50 at pHe 7.4/IC50 at pHe 6.5) (FaDu cells; anoxic) | PCR oxic (IC50 at pHe 7.4/IC50 at pHe 6.5) (FaDu cells; oxic) | ACR (oxic IC50/anoxic IC50) (FaDu cells; pHe 6.5) | ACR (oxic IC50/anoxic IC50) (FaDu cells; pHe 7.4) | also measured |
| --- | --- | --- | --- | --- | --- | --- | --- | --- | --- | --- | --- | --- | --- | --- | --- | --- | --- | --- | --- | --- | --- |
| 171 to 178 °C |  | COC(=O)CNc1n[n+]([O-])c2cc3c(cc2[n+]1[O-])CCC3 [Compound 9b, 3-((2-Methoxy-2-oxoethyl)amino)-7,8-dihydro-6H-indeno[5,6-e][1,2,4]triazine 1,4-dioxide] | 10.9 ± 1.42 µM | 8.08 ± 2.23 µM | 42.2 ± 5.7 µM | > 53 µM | >4.6 | 0.74 ± 0.23 | >1.2 | 3.87 ±0.73 | >6.5 | >1.4 | 37.7 ± 8 µM | > 53 µM | 46.9 ± 3 µM | > 53 µM | 1.24 ± 0.28 |  | >1 | >1 | solubility ([1]; thermodynamic from solid): 70 µM |
| 191 to 192 °C | 160 µM | CCOC(=O)CCCNc1n[n+]([O-])c2cc(C)ccc2[n+]1[O-] [Compound 12b, 3-((4-Ethoxy-4-oxobutyl)amino)-7-methylbenzo[e][1,2,4]triazine 1,4-Dioxide] |  |  |  |  |  |  |  |  |  |  |  |  |  |  |  |  |  |  |  |
